Data published in patent publication EP1388586A2, “Identification of broadly reactive DR restricted epitopes” (priority 1998, dated 1999).
Where two headings read alike, the source gives them in different places. Square brackets hold non-standard residues; d marks the D form. Ends that are not written are not given here. Peptide text beside a SMILES is read from it.

Assays:
[1] = system: panel of purified HLA DR molecules; format: binding, human; details: Table V B) Correct Predictions; 12 DR molecules listed;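 note: competitive inhibition of radiolabeled probe peptide binding to purified HLA DR molecules, with inhibitory potency of unlabeled peptides taken as an approximation of affinity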
DRB1*0101 (DR1) = biological target: T1, DRB1*0101 (DR1) (Homo sapiens, UniProt P01903+P01911, A100R/D57E/F55L/F60I/F76Y/I96L/L162R/M171V/P40L/Q125E/R42F/V115G/Y59C); assay: Class II peptide-binding assay, DR1;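 note: competition assay: unlabeled test peptides inhibit binding of a radiolabeled probe peptide to purified DR, with half-maximal inhibition taken as an approximate dissociation constant Kd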
T1 construct: used as sources of human HLA class II molecules; endogenous in cells; host or cells: LG2 (EBV-transformed homozygous B cell line)

DRB5*0101 (DR2w2a) = biological target: T2, DRB5*0101 (DR2w2a) (Homo sapiens, UniProt P01903+Q30154); assay: Class II peptide-binding assay, DR2w2a (DR2w2B2);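 note: competitive binding assay: unlabeled peptide inhibiting binding of a radiolabeled probe peptide to purified DR molecules at pH 7.0, IC50 approximating Kd, lower means stronger binding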
T2 construct: used as sources of human HLA class II molecules; endogenous in cells; host or cells: GM3107 (EBV-transformed homozygous B cell line)
Procedure: (§1) Class II peptide-binding assays. […] These assays were chosen as to be representative of the most common DR alleles.
(§2) Radiolabeled peptides were iodinated using the chloramine-T method. […] In appropriate stoichiometric conditions, the IC50 of an unlabeled test peptide to the purified DR is a reasonable approximation of the affinity of interaction (Kd). Peptides were tested in two to four completely independent experiments. […] Final detergent concentration in the incubation mixture was 0.05% Nonidet P-40. Assays were performed at pH 7.0 with the exception of DR3, which was performed at pH 4.5, and DRw53, which was performed at pH 5.0.
(§3) All subsequent inhibition and direct binding assays were the performed using these class II concentrations.

DRB1*0301 (DR3w17) = biological target: T3, DRB1*0301 (DR3w17) (Homo sapiens, UniProt P01903+P01911, A100K/A102G/A103R/A169T/F55Y/I96L/K41T/L162R/M171V/P40S/Q125H/Q178H/Q39Y/R42S/S66N/T106N/T262R/W38E/Y61H); assay: Class II peptide-binding assay, DR3 (pH 4.5);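 note: unlabeled peptide competing with a radiolabeled probe peptide for binding to affinity-purified HLA-DR3, IC50 regarded as an approximation of Kd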
T3 construct: used as sources of human HLA class II molecules; endogenous in cells; host or cells: MAT (EBV-transformed homozygous B cell line)
T3 sequence (P01903 26-254, other chains not shown): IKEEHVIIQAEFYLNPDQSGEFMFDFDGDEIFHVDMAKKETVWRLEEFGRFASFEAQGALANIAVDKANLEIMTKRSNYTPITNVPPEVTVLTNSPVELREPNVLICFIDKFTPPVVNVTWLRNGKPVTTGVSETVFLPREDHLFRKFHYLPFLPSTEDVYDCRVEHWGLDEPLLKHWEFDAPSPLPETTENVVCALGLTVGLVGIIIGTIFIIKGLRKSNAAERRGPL
Procedure: as §1
(§4) In appropriate stoichiometric conditions, the IC50 of an unlabeled test peptide to the purified DR is a reasonable approximation of the affinity of interaction (Kd). Peptides were tested in two to four completely independent experiments. […] Final detergent concentration in the incubation mixture was 0.05% Nonidet P-40. Assays were performed at pH 7.0 with the exception of DR3, which was performed at pH 4.5, and DRw53, which was performed at pH 5.0.
as §3

DRB1*0401 (DR4w4) = biological target: T4, DRB1*0401 (DR4w4) (Homo sapiens, UniProt P01903+P01911, A100K/A169T/F76Y/I96L/K127E/L162R/M171V/N62H/P40V/Q125Y/R42H/S133A/S149N/S66Y/V115G/V209L/W38E); assay: Class II peptide-binding assay, DR4w4;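 note: unlabeled test peptides compete with a radiolabeled probe peptide for binding to affinity-purified HLA-DR, with DR amount titrated to capture a small fraction of label, IC50 approximating Kd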
T4 construct: used as sources of human HLA class II molecules; endogenous in cells; host or cells: PREISS (EBV-transformed homozygous B cell line)

DRB10404 (DR4w14) = biological target: T5, DRB10404 (DR4w14) (Homo sapiens, UniProt P01903+P01911, A100R/A169T/F76Y/I96L/K127E/L162R/M171V/N62H/P40V/Q125Y/R42H/S133A/S149N/S66Y/V209L/W38E); assay: Class II peptide-binding assay, DR4w14;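 note: unlabeled peptides compete with a radiolabeled probe for binding to affinity-purified HLA-DR, neutral pH, class II amount titrated to bind a small fraction of label, IC50 approximates Kd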
T5 construct: used as sources of human HLA class II molecules; endogenous in cells; host or cells: BIN40 (EBV-transformed homozygous B cell line)
Procedure: as §1, §4, §3

DRB1*0701 (DR7) = DRB1*0701 (DR7) (Homo sapiens, UniProt P01903+P01911, A100R/A102G/A103Q/D57E/D86V/E43K/F76Y/K127E/L162R/M171V/P40G/Q125H/Q99D/R33Q/R42Y/R54Q/S133A/S66F/T210M/V115G/Y107V/Y59L/Y89S); assay: Class II peptide-binding assay, DR7;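 note: unlabeled peptides compete with an iodinated probe peptide for binding to affinity-purified HLA-DR at neutral pH, DR amount titered to bind a small tracer fraction, IC50 approximating Kd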
DRB1*1101 (DR5w11) = biological target: T6, DRB1*1101 (DR5w11) (Homo sapiens, UniProt P01903+P01911, A100R/A169T/A87E/I96F/K41T/L162R/M171V/P40S/Q125H/Q178H/Q39Y/Q99D/R42S/S66Y/T262R/V115G/W38E); assay: Class II peptide-binding assay, DR5w11;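 note: competition by unlabeled test peptide against iodinated probe peptide binding to affinity-purified HLA-DR, class II amount titrated beforehand, half-maximal inhibitory concentration read as approximate Kd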
T6 construct: used as sources of human HLA class II molecules; endogenous in cells; host or cells: SWEIG (EBV-transformed homozygous B cell line)
T6 sequence (P01903 26-254, other chains not shown): as above
Procedure: as §1, §2, §3

[2] = read-out: DR1 nM (In IC50 Format), purified HLA DR1
[3] = read-out: DR2w2B2 nM (In IC50 Format), purified HLA DR2w2β2
[4] = read-out: DR3 nM (In IC50 Format), purified HLA DR3
[5] = read-out: DR4w4 nM (In IC50 Format), purified HLA DR4w4
[6] = read-out: DR4w14 nM (In IC50 Format), purified HLA DR4w14
[7] = read-out: DR7 nM (In IC50 Format), purified HLA DR7
[8] = read-out: DR1 nM, Table VIII, In IC50 Format
[9] = read-out: DR2w2B2 nM, Table VIII, In IC50 Format
[10] = read-out: DR3 nM, Table VIII, In IC50 Format
[11] = read-out: DR4w4 nM, Table VIII, In IC50 Format
[12] = read-out: DR4w14 nM, Table VIII, In IC50 Format
[13] = read-out: DR5w11 nM, Table VIII, In IC50 Format
[14] = read-out: DR7 nM, Table VIII, In IC50 Format
[15] = read-out: In IC50 Format DR1, Table VIII
[16] = read-out: In IC50 Format DR2w2β2, Table VIII
[17] = read-out: In IC50 Format DR3, Table VIII
[18] = read-out: In IC50 Format DR4w4, Table VIII
[19] = read-out: In IC50 Format DR4w14, Table VIII
[20] = read-out: In IC50 Format DR5w11, Table VIII
[21] = read-out: In IC50 Format DR7, Table VIII

Compound | IC50 (DRB1*0101 (DR1); [8]) [nM] | IC50 (DRB5*0101 (DR2w2a); [9]) [nM] | IC50 (DRB1*0301 (DR3w17); [10]) [nM] | IC50 (DRB1*0401 (DR4w4); [11]) [nM] | IC50 (DRB10404 (DR4w14); [12]) [nM] | IC50 (DRB1*1101 (DR5w11); [13]) [nM] | IC50 (DRB1*0701 (DR7); [14]) [nM] | IC50 (DRB1*0101 (DR1); [15]) [nM] | IC50 (DRB5*0101 (DR2w2a); [16]) [nM] | IC50 (DRB1*0301 (DR3w17); [17]) [nM] | IC50 (DRB1*0401 (DR4w4); [18]) [nM] | IC50 (DRB10404 (DR4w14); [19]) [nM] | IC50 (DRB1*1101 (DR5w11); [20]) [nM] | IC50 (DRB1*0701 (DR7); [21]) [nM] | other results
CC[C@H](C)[C@H](NC(=O)[C@H](CO)NC(=O)[C@H](CO)NC(=O)[C@H](CC(N)=O)NC(=O)[C@@H](NC(=O)[C@@H](NC(=O)[C@H](CC(N)=O)NC(=O)[C@@H](N)Cc1ccccc1)C(C)C)C(C)C)C(=O)NCC(=O)N[C@@H](CC(C)C)C(=O)N[C@H](C(=O)N[C@@H](CCSC)C(=O)N[C@H](C(=O)N[C@@H](CC(C)C)C(=O)N[C@@H](CO)C(=O)O)C(C)C)[C@@H](C)CC [Peptide 27.384] |  |  |  |  |  |  |  |  |  |  |  |  |  |  | Total Alleles Bound [1]: 4
CC[C@H](C)[C@H](NC(=O)[C@H](CCCNC(=N)N)NC(=O)[C@H](CO)NC(=O)[C@H](Cc1ccccc1)NC(=O)[C@@H](NC(=O)[C@H](CO)NC(=O)[C@H](CO)NC(=O)[C@H](CC(C)C)NC(=O)[C@@H]1CCCN1C(=O)[C@H](CO)NC(=O)[C@H](C)NC(=O)[C@@H](NC(=O)[C@@H](NC(=O)[C@H](CC(C)C)NC(=O)[C@@H](NC(=O)[C@@H]1CCCN1C(=O)[C@@H](N)CC(N)=O)C(C)C)[C@@H](C)O)[C@@H](C)O)[C@@H](C)CC)C(=O)O [Peptide 801.02] |  |  |  |  |  |  |  |  |  |  |  |  |  |  | IC50 (DRB1*0101 (DR1); [2]): 714 nM; IC50 (DRB5*0101 (DR2w2a); [3]): 20000 nM; IC50 (DRB1*0301 (DR3w17); [4]): 300000 nM; IC50 (DRB1*0401 (DR4w4); [5]): 54.1 nM; IC50 (DRB10404 (DR4w14); [6]): 6.5 nM; IC50 (DRB1*0701 (DR7); [7]): 63.1 nM
CC[C@H](C)[C@H](NC(=O)[C@@H](NC(=O)[C@@H](NC(=O)[C@H](CCC(=O)O)NC(=O)[C@H](CCCNC(=N)N)NC(=O)CN)[C@@H](C)O)C(C)C)C(=O)N[C@@H](CCC(=O)O)C(=O)N[C@@H](Cc1ccc(O)cc1)C(=O)N[C@@H](CC(C)C)C(=O)N[C@H](C(=O)N[C@@H](CO)C(=O)N[C@@H](Cc1ccccc1)C(=O)NCC(=O)N[C@H](C(=O)N[C@@H](Cc1c[nH]c2ccccc12)C(=O)O)C(C)C)C(C)C [Peptide 802.04] |  |  |  |  |  |  |  |  |  |  |  |  |  |  | IC50 (DRB1*0101 (DR1); [2]): 12.8 nM; IC50 (DRB5*0101 (DR2w2a); [3]): 1330 nM; IC50 (DRB1*0301 (DR3w17); [4]): 16700 nM; IC50 (DRB1*0401 (DR4w4); [5]): 833 nM; IC50 (DRB10404 (DR4w14); [6]): 32.3 nM; IC50 (DRB1*1101 (DR5w11); read-out: DR5w11 nM (In IC50 Format), purified HLA DR5w11): 1540 nM; IC50 (DRB1*0701 (DR7); [7]): 67.6 nM
CC(C)C[C@H](NC(=O)[C@@H](NC(=O)[C@H](C)NC(=O)[C@H](C)NC(=O)[C@H](CCCCN)NC(=O)[C@H](C)NC(=O)[C@H](Cc1ccccc1)NC(=O)[C@H](CCCCN)NC(=O)[C@@H](C)N)[C@@H](C)O)C(=O)N[C@@H](CCCCN)C(=O)N[C@@H](C)C(=O)N[C@@H](C)C(=O)N[C@H](C)C(N)=O [Peptide 871.01] (H-[dA]KFAKAATLKAA[dA]-NH2) | 4.2 | 14.7 | 37500 | 3.1 | 9.6 | 14.6 | 301 |  |  |  |  |  |  |  | 
CC(C)C[C@H](NC(=O)[C@@H](NC(=O)[C@H](C)NC(=O)[C@H](C)NC(=O)[C@H](C)NC(=O)[C@H](CCCCN)NC(=O)[C@H](Cc1ccccc1)NC(=O)[C@H](C)NC(=O)[C@@H](C)N)[C@@H](C)O)C(=O)N[C@@H](CCCCN)C(=O)N[C@@H](C)C(=O)N[C@@H](C)C(=O)N[C@H](C)C(N)=O [Peptide 871.08] (H-[dA]AFKAAATLKAA[dA]-NH2) | 1.8 | 3.9 | 15000 | 1.9 | 10 | 9 | 111 |  |  |  |  |  |  |  | 
CC(C)C[C@H](NC(=O)[C@@H](NC(=O)[C@H](C)NC(=O)[C@H](C)NC(=O)[C@H](CCCCN)NC(=O)[C@@H](NC(=O)[C@H](Cc1ccccc1)NC(=O)[C@H](CCCCN)NC(=O)[C@@H](C)N)C(C)C)[C@@H](C)O)C(=O)N[C@@H](CCCCN)C(=O)N[C@@H](C)C(=O)N[C@@H](C)C(=O)N[C@H](C)C(N)=O [Peptide 909.02] (H-[dA]KFVKAATLKAA[dA]-NH2) | 2.5 | 8 | 5660 | 4.7 | 33.3 | 5.7 | 208 |  |  |  |  |  |  |  | 
DTVKLMYKGQPMTFRLLLV [Peptide 866.01] | 23 | 7.7 | 42900 | 176 | 10000 | 169 | 3570 |  |  |  |  |  |  |  | 
DVFKELKVHHANENI [Peptide 519.00] |  |  |  |  |  |  |  | 9.6 | 571 | 150000 | 40.9 | 250 | 118 | 463 | 
FFKNIVTPRFFKNIVTPR [Peptide 613.03] |  |  |  |  |  |  |  | 200 | 188 | 75000 | 4500 | 2000 | 1670 | 272 | 
KIAKMEKASSVFNVVNS [Peptide 526.01] |  |  |  |  |  |  |  | 35.7 | 3330 | 130000 | 187 | 1280 | 64.5 | > 1250 | 
